Experimental data: patent US20080261994A1, “CYCLOPROPANE COMPOUNDS AND PHARMACEUTICAL USE THEREOF” (Japan Tobacco Inc., priority 2003, published 2008)
Read-outs that look alike come from different tables or passages of the source.

Key:
Assay type in all cases: biochemical
[1] = biological target: T1, aggrecanase-1 (Homo sapiens, UniProt O75173); test: Aggrecanase-1 inhibitory action (Particle Assay, GAG release from aggrecan-containing polyacrylamide particles)
T1 sequence (O75173 213-837): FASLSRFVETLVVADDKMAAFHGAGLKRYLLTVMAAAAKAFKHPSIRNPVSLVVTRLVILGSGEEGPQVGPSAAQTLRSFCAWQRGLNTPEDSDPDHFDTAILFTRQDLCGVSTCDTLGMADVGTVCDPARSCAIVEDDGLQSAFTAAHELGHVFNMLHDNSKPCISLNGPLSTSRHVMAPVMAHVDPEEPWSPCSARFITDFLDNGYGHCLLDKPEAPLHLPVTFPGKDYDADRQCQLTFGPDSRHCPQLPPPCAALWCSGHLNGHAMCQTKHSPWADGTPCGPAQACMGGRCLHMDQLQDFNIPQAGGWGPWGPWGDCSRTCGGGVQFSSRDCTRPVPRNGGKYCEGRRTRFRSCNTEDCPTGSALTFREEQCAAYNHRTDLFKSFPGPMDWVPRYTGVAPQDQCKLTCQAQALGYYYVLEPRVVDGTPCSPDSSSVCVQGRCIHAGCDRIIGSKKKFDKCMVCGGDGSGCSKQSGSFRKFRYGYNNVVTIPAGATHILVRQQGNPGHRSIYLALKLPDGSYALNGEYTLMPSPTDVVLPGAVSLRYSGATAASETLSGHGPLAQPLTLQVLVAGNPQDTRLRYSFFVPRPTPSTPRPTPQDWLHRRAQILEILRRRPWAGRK
Procedure: Particle Assay was used for determination of aggrecanase activity.
(§1) The enzyme and substrate were diluted with Tris-HCl buffer, and test compounds were diluted with dimethyl sulfoxide (DMSO).
Test compounds and the enzyme were added into 96-well plate, and polyacrylamide particles containing aggrecan were added as a substrate and the mixture was incubated at 37° C. for 15 hr.
After incubation, the supernatant was transferred to another plate, and mixed with 1,9-dimethylmethylene blue. The absorbence at 595 nm was measured to quantify the amount of glycosaminoglycan (GAG) released in the reaction supernatant. Whale chondroitin sulfate was used as the standard of GAG. The inhibitory activity of the compound in each well (%) was calculated based on the values of enzyme-free well and inhibitor-free well. The inhibitory activity of the compound was represented as […] (μM).

[2] = biological target: T2, Recombinant Human MMP-13 (Homo sapiens, UniProt P45452); test: MMP-13 inhibitory activity (MMP-13 specific fluorescent substrate with quencher)
T2 construct: purchased R&D systems 511-MM
Procedure: Inhibitory activity of tested compounds on MMP-13 was measured using MMP-13 specific fluorescent substrate with quencher.
as §1
Test compounds and the enzyme (Recombinant Human MMP-13: R&D systems, 511-MM) were added into 96-well plate. The reaction was initiated by adding synthetic substrate (7-MCA-Pro-CHA-Gly-NVal-His-Ala-DPA: enzyme systems products, Met-06) into the plate. After incubation at 25° C. for 1 h, the reaction was terminated by addition of reaction terminating solution containing acetic acid. Fluorescence intensity of each well was measured (Ex: 325 nm, […] 405 nm) and the MMP-13 inhibitory activity of the compound in each well (%) was calculated based on the values of enzyme-free well and inhibitor-free well. The inhibitory activity of the compound was represented as IC50 (μM).

[3] = biological target: T3, MMP-1 (Homo sapiens, UniProt P03956); test: MMP-1 inhibitory action (Type I collagen Activity Measurement kit, FITC-labeled collagen type I)
T3 sequence (P03956 100-469): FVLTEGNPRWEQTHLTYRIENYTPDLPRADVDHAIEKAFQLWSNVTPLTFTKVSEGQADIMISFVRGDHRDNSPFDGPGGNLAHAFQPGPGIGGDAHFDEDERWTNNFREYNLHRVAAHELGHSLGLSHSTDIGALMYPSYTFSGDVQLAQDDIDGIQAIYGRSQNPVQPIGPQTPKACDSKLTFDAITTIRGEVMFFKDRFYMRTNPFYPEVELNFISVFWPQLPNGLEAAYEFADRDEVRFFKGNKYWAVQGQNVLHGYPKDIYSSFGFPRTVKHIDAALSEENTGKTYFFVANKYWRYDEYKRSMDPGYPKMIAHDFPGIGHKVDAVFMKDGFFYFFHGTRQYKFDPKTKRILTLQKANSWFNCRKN
Procedure: For MMP-1 Assay, Type I collagen Activity Measurement kit (YAGAI YU-72013) modified to a 96-well plate format was used.
The principle of the kit is based on the property of collagen that becomes soluble in ethanol after being cleaved by MMP-1.
as §1
The enzyme and test compounds were added into 96-well plate, and fluorescein isothiocianate (FITC)-labeled collagen type I was added as a substrate and the mixture was incubated at 37° C. for 3 hr.
The reaction was terminated by addition of Tris-HCl buffer containing ethanol. After centrifugation, the supernatant containing denatured substrate was transferred to another 96-well plate. The collagenase activity of MMP-1 was determined by measuring FITC fluorescence intensity (excitation wavelength 485 nm, emission wavelength 530 nm) of each well. The inhibitory activity of the compound in each well (%) was calculated based on the values of enzyme-free well and inhibitor-free well. The inhibitory activity of the compound was represented as IC50 (μM).

[4] = aggrecanase-1 inhibitory action, read-out: IC50 AG1 (Experimental Example 1)
[5] = Recombinant Human MMP-13, fluorescent substrate, 25° C. for 1 h, read-out: IC50 MMP13 (Experimental Example 3)
[6] = Experimental Example 1, read-out: IC50 AG1
[7] = Experimental Example 3, read-out: IC50 MMP13
[8] = MMP-1 inhibitory action, FITC-labeled collagen type I, 37° C. for 3 hr, read-out: IC50 MMP1 (Experimental Example 2)
[9] = Experimental Example 2, read-out: IC50 MMP1

SMILES	IC50 [1, 4] [nM]	IC50 [2, 5] [nM]	also measured
O=C(O)C1(NS(=O)(=O)N2CCN(c3cccc(C(F)(F)F)c3)CC2)CC1c1ccccc1 (stereo not drawn) [Example 2-28]	≥ 1000	≥ 10000	
C[C@]1(c2ccccc2)C[C@@]1(NS(=O)(=O)c1csc2ccc(-c3ccccc3)cc12)C(=O)O [Example 2-585]			IC50 [1, 6]: ≥ 1000 nM; IC50 [2, 7]: ≥ 1000 nM
O=C(O)C1(NS(=O)(=O)N2CCN(c3cccc(Cl)c3)CC2)CC1c1ccccc1 (stereo not drawn) [Example 2-31]	≥ 1000	≥ 1000	
O=C(O)C1(NS(=O)(=O)c2ccc(-c3ccc(Cl)cc3)s2)CC1Cc1ccccc1 (stereo not drawn) [Example 2-38]	≥ 1000	< 1000	
N#Cc1ccc(-c2ccc(S(=O)(=O)N[C@@]3(C(=O)O)C[C@@H]3c3ccccc3)s2)s1 [Example 2-34]	≥ 1000	< 1000	
O=C(O)[C@]1(NS(=O)(=O)c2ccc(-c3cc4ccccn4c3)s2)C[C@@H]1c1ccccc1 [Example 2-135]	≥ 1000	< 100	
C[C@]1(c2ccccc2)C[C@@]1(NS(=O)(=O)c1ccc(N2CCC(F)(F)CC2)s1)C(=O)O [Example 2-455]			IC50 [1, 6]: ≥ 1000 nM; IC50 [2, 7]: ≥ 1000 nM
CC1[C@H](c2ccccc2)[C@]1(NS(=O)(=O)c1ccc(-c2cnc3ccccc3n2)s1)C(=O)O (stereo partly drawn) [Example 2-456]			IC50 [1, 6]: ≥ 1000 nM; IC50 [2, 7]: ≥ 1000 nM
CC1[C@H](c2ccccc2)[C@]1(NS(=O)(=O)c1ccc(-c2ccc3[nH]c(=O)sc3c2)s1)C(=O)O (stereo partly drawn) [Example 2-468]			IC50 [1, 6]: < 1000 nM; IC50 [3, 9]: ≥ 1 µM
O=C1NCc2ccccc2C2CC12NS(=O)(=O)c1ccc(-c2ccc(Cl)cc2)s1 (stereo not drawn) [Example 2-415]			IC50 [1, 6]: ≥ 1000 nM; IC50 [3, 9]: ≥ 10 µM
O=C(O)[C@]1(NS(=O)(=O)c2ccc(-c3nsc(CF)n3)s2)C[C@@H]1c1ccccc1 [Example 2-115]	≥ 1000	< 1000	

Now from value to compound, other results behind:

IC50 [1, 4] [nM]	IC50 [2, 5] [nM]	SMILES	also measured
≥ 1000	< 100	O=C(O)C1(NS(=O)(=O)N2CCN(c3ccc(C(F)(F)F)cc3)CC2)CC1c1ccccc1 (stereo not drawn) [Example 2-29]	
≥ 1000	< 1000	COc1ccc(-c2ccc(S(=O)(=O)N[C@@]3(C(=O)O)C[C@@H]3c3ccccc3)s2)nn1 [Example 2-33]	
≥ 1000	≥ 1000	O=C(O)C1(NS(=O)(=O)N2CCN(c3ccc(Cl)c(C(F)(F)F)c3)CC2)CC1c1ccccc1 (stereo not drawn) [Example 2-30]	
< 100		O=C(COc1ccccc1C1CC1(NS(=O)(=O)c1ccc(-c2ccc(Cl)cc2)s1)C(=O)O)N1CCOCC1 (stereo not drawn) [Example 1-146]	IC50 [3, 8]: ≥ 10 µM
< 1000		O=C(O)C1(NS(=O)(=O)c2ccc(-c3ccc(Cl)cc3)s2)CC1c1cccc(O)c1 (stereo not drawn) [Example 1-116]	IC50 [3, 8]: ≥ 1 µM
< 1000		O=C(O)[C@]1(NS(=O)(=O)c2ccc(-c3ccc(Cl)cc3)cc2)C[C@@H]1c1ccccc1 [Example 1, (1S,2R)-1-(4′-Chlorobiphenyl-4-sulfonylamino)-2-phenylcyclopropanecarboxylic acid]	IC50 [3, 8]: ≥ 1 µM
< 1000		CN(C)Cc1cccc(C2CC2(NS(=O)(=O)c2ccc(-c3ccc(Cl)cc3)s2)C(=O)O)c1 (stereo not drawn) [Example 1-98]	IC50 [3, 8]: ≥ 10 µM
